The numbers were not newly measured in patent US20050158747A1, “CFTR modifier genes and expressed polypeptides useful in treating cystic fibrosis and methods and products for detecting and/or identifying same” (priority 2003, published 2005), which cites them from elsewhere.

The test system of series [1] is purinergic receptors in the airway epithelium. The conditions noted are these: in vitro studies.
For series [2], the system named is sodium (Na^+) channels. The conditions noted are these: aerosolized; initial results.

SMILES strings stand for the structures.

Turning to `Nc1ncnc2c1ncn2[C@@H]1O[C@H](COP(=O)(O)OP(=O)(O)OP(=O)(O)O)[C@@H](O)[C@H]1O` [ATP], the “chloride (Cl^−) secretion” value in series [1] is recorded as “can stimulate chloride (Cl^−) secretion”. Regarding `O=c1ccn([C@@H]2O[C@H](COP(=O)(O)OP(=O)(O)OP(=O)(O)O)[C@@H](O)[C@H]2O)c(=O)[nH]1` [UTP], in series [1], the “chloride (Cl^−) secretion” value is “can stimulate chloride (Cl^−) secretion”. As to `N=C(N)NC(=O)c1nc(Cl)c(N)nc1N` [amiloride], in series [2], the “rate of disease progression, as measured by lung function tests” value is reported as “slight change in the rate of disease progression” and the safety in trials entry is “safe”.
